Converted amounts (≈) assume the structure as drawn.
Legend:
[1] = test system: A-375; assay: Antiproliferative activity against human A-375 cells; type: functional, cell-based
[2] = molecular target: Serine/threonine-protein kinase B-raf (Homo sapiens, UniProt P15056); assay: Inhibition of RAF in human A-375 cells assessed as reduction in p-ERK levels; type: cell-based
[3] = test system: KYSE-520 cell line; assay: Antiproliferative activity against human KYSE-520 cells; type: functional, cell-based
[4] = Toxicity in mouse 3T3 cells under irradiation by NRU phototoxicity test; type: cell-based
[5] = molecular target: T1, Tyrosine-protein phosphatase non-receptor type 11 (Homo sapiens, UniProt Q06124)
T1 sequence (Q06124 whole entry): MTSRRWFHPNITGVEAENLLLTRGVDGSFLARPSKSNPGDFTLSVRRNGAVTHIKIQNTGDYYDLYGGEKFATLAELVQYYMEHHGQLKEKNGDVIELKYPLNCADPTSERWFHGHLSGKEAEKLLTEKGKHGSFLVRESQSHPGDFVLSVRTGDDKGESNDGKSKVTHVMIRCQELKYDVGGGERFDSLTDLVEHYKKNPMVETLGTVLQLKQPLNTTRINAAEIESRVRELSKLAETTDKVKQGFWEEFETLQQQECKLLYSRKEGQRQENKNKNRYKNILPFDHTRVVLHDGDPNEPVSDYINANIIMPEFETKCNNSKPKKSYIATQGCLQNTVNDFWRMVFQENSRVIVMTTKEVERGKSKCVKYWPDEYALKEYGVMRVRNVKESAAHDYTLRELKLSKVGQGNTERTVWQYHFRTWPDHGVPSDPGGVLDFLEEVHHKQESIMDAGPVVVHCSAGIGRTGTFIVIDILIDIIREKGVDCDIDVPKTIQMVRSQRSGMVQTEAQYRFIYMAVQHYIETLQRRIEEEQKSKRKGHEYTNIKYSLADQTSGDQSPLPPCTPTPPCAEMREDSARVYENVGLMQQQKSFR
Description: Allosteric inhibition of human SHP2 in human KYSE-520 cells assessed as reduction in ERK1/2 phosphorylation by fluorescence based assay

[6] = molecular target: Voltage-gated inwardly rectifying potassium channel KCNH2 (Homo sapiens, UniProt Q12809)
Description: Inhibition of human ERG by Q-patch assay

[7] = physchem; settings: aqueous, pH 6.8
Description: Aqueous solubility of the compound at pH 6.8

[8] = physchem; settings: octanol/water
Description: Lipophilicity, logP of the compound

[9] = physchem; settings: octanol/water; remark: listed apart in the source
Description: Distribution coefficient, logD of the compound

[10] = test system: NCI-H358; assay: Antiproliferative activity against human NCI-H358 cells; type: functional, cell-based
[11] = molecular target: T2, Tyrosine-protein phosphatase non-receptor type 11 (Homo sapiens) (UniProt Q06124); settings: filed as negative allosteric modulator
T2 sequence (whole entry): T1 sequence (Q06124 whole entry)

[12] = test system: MIA PaCa-2; assay: cells; settings: Homo sapiens
Description: Antiproliferative activity against human MIA PaCa-2 cells

[13] = molecular target: Cytochrome P450 3A4 (Homo sapiens, UniProt P08684); assay: Inhibition of CYP3A4 (unknown origin); type: ADME
[14] = molecular target: Cytochrome P450 2D6 (Homo sapiens, UniProt P10635); assay: Inhibition of CYP2D6 (unknown origin); type: ADME
[15] = molecular target: Cytochrome P450 2C9 (Homo sapiens, UniProt P11712); assay: Inhibition of CYP2C9 (unknown origin); type: ADME
[16] = Toxicity in NU/NU mouse xenografted with human KYSE-520 cells assessed as induction of body weight loss eat 2.5 to 20 mg/kg, po BID for 2 weeks; type: organism-based; settings: in vivo, 336 h, dose 2.5-20 mg/kg
[17] = Volume of distribution at steady state in C57BL/6 mouse at 1 mg/kg, iv by LC-MS/MS analysis; type: ADME, organism-based; settings: in vivo, read-out: Vdss
[18] = Terminal half life in C57BL/6 mouse at 1 mg/kg, iv by LC-MS/MS analysis; type: ADME, organism-based; settings: in vivo, read-out: beta t1/2 (converted)
[19] = AUC/dose in C57BL/6 mouse at 1 mg/kg, iv by LC-MS/MS analysis; type: ADME, organism-based; settings: in vivo
[20] = AUC/dose in C57BL/6 mouse at 5 mg/kg, po by LC-MS/MS analysis; type: ADME, organism-based; settings: in vivo
[21] = Cmax/dose in C57BL/6 mouse at 5 mg/kg, po by LC-MS/MS analysis; type: ADME, organism-based; settings: in vivo
[22] = Tmax in C57BL/6 mouse at 5 mg/kg, po by LC-MS/MS analysis; type: ADME, organism-based; settings: in vivo
[23] = Oral bioavailability in C57BL/6 mouse at 5 mg/kg by LC-MS/MS analysis; type: ADME, organism-based; settings: in vivo
[24] = Protein binding in C57BL/6 mouse plasma; type: ADME, cell-free; settings: read-out: PPB (converted)
[25] = Clearance in Sprague-Dawley rat at 1 mg/kg, iv by LC-MS/MS analysis; type: ADME, organism-based; settings: in vivo
[26] = Volume of distribution at steady state in Sprague-Dawley rat at 1 mg/kg, iv by LC-MS/MS analysis; type: ADME, organism-based; settings: in vivo, read-out: Vdss
[27] = Terminal half life in Sprague-Dawley rat at 1 mg/kg, iv by LC-MS/MS analysis; type: ADME, organism-based; settings: in vivo, read-out: beta t1/2 (converted)
[28] = AUC/dose in Sprague-Dawley rat at 1 mg/kg, iv by LC-MS/MS analysis; type: ADME, organism-based; settings: in vivo
[29] = AUC/dose in Sprague-Dawley rat at 5 mg/kg, po by LC-MS/MS analysis; type: ADME, organism-based; settings: in vivo
[30] = Cmax/dose in Sprague-Dawley rat at 5 mg/kg, po by LC-MS/MS analysis; type: ADME, organism-based; settings: in vivo
[31] = Tmax in Sprague-Dawley rat at 5 mg/kg, po by LC-MS/MS analysis; type: ADME, organism-based; settings: in vivo
[32] = Oral bioavailability in Sprague-Dawley rat at 5 mg/kg by LC-MS/MS analysis; type: ADME, organism-based; settings: in vivo
[33] = Protein binding in Sprague-Dawley rat plasma; type: ADME, cell-free; settings: read-out: PPB (converted)
[34] = Clearance in beagle dog at 0.2 mg/kg, iv by LC-MS/MS analysis; type: ADME, organism-based, Canis lupus familiaris; settings: in vivo
[35] = Volume of distribution at steady state in beagle dog at 0.2 mg/kg, iv by LC-MS/MS analysis; type: ADME, organism-based, Canis lupus familiaris; settings: in vivo, read-out: Vdss
[36] = Terminal half life in beagle dog at 0.2 mg/kg, iv by LC-MS/MS analysis; type: ADME, organism-based, Canis lupus familiaris; settings: in vivo, read-out: beta t1/2 (converted)
[37] = AUC/dose in beagle dog at 0.2 mg/kg, iv by LC-MS/MS analysis; type: ADME, organism-based, Canis lupus familiaris; settings: in vivo
[38] = AUC/dose in beagle dog at 1 mg/kg, po by LC-MS/MS analysis; type: ADME, organism-based, Canis lupus familiaris; settings: in vivo
[39] = Cmax/dose in beagle dog at 1 mg/kg, po by LC-MS/MS analysis; type: ADME, organism-based, Canis lupus familiaris; settings: in vivo
[40] = Tmax in beagle dog at 1 mg/kg, po by LC-MS/MS analysis; type: ADME, organism-based, Canis lupus familiaris; settings: in vivo
[41] = Oral bioavailability in beagle dog at 1 mg/kg by LC-MS/MS analysis; type: ADME, organism-based, Canis lupus familiaris; settings: in vivo
[42] = Protein binding in beagle dog plasma; type: ADME, cell-free, Canis lupus familiaris; settings: read-out: PPB (converted)
[43] = Clearance in cynomolgus monkey at 0.3 mg/kg, iv by LC-MS/MS analysis; type: ADME, organism-based, Macaca fascicularis; settings: in vivo
[44] = Volume of distribution at steady state in cynomolgus monkey at 0.3 mg/kg, iv by LC-MS/MS analysis; type: ADME, organism-based, Macaca fascicularis; settings: in vivo, read-out: Vdss
[45] = Terminal half life in cynomolgus monkey at 0.3 mg/kg, iv by LC-MS/MS analysis; type: ADME, organism-based, Macaca fascicularis; settings: in vivo, read-out: beta t1/2 (converted)
[46] = AUC/dose in cynomolgus monkey at 0.3 mg/kg, iv by LC-MS/MS analysis; type: ADME, organism-based, Macaca fascicularis; settings: in vivo
[47] = AUC/dose in cynomolgus monkey at 1 mg/kg, po by LC-MS/MS analysis; type: ADME, organism-based, Macaca fascicularis; settings: in vivo
[48] = Cmax/dose in cynomolgus monkey at 1 mg/kg, po by LC-MS/MS analysis; type: ADME, organism-based, Macaca fascicularis; settings: in vivo
[49] = Tmax in cynomolgus monkey at 1 mg/kg, po by LC-MS/MS analysis; type: ADME, organism-based, Macaca fascicularis; settings: in vivo
[50] = Oral bioavailability in cynomolgus monkey at 1 mg/kg by LC-MS/MS analysis; type: ADME, organism-based, Macaca fascicularis; settings: in vivo
[51] = Protein binding in cynomolgus monkey plasma; type: ADME, cell-free, Macaca fascicularis; settings: read-out: PPB (converted)
[52] = molecular target: T1, Tyrosine-protein phosphatase non-receptor type 11; assay: Allosteric inhibition of 6x-histidine tagged human SHP2 (Met1-L525 residues) expressed in Escherichia coli BL21 Star (DE3) using IRS1_pY1172(dPEG8)[…] incubated for 30 mins by fluorescence based DIFMUP assay

Voltage-gated inwardly rectifying potassium channel KCNH2, sequence (Q12809 whole entry): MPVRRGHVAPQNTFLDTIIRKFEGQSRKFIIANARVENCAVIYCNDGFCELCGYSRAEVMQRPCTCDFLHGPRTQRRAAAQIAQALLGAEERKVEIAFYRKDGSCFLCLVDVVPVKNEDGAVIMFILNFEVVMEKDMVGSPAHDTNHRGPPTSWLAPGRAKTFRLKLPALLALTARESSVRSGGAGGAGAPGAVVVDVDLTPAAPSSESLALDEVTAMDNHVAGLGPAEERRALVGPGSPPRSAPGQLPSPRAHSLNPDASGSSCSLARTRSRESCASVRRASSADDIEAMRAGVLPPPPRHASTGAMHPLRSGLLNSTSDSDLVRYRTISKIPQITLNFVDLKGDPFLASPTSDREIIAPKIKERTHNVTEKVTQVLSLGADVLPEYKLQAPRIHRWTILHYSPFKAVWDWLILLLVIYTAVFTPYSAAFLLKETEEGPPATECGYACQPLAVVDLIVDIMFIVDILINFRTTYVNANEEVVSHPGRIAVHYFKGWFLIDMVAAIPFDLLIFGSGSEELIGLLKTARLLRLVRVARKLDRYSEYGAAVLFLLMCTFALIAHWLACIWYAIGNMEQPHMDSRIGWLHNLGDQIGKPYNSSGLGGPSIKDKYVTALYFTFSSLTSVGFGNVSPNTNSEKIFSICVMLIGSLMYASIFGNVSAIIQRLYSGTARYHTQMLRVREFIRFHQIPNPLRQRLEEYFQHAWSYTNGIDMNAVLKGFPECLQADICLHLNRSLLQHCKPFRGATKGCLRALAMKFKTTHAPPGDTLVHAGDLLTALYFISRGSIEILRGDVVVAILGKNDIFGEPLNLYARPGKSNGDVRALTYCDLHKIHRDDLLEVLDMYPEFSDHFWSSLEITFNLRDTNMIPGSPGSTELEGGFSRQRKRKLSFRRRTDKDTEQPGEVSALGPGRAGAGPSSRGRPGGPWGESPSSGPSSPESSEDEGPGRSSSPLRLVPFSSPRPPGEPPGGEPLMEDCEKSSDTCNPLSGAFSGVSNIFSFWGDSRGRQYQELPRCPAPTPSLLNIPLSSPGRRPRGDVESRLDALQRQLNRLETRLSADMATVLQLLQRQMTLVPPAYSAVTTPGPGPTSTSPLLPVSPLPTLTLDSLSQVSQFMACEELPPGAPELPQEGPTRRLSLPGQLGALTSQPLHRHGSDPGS
Cytochrome P450 2C9, sequence (P11712 whole entry): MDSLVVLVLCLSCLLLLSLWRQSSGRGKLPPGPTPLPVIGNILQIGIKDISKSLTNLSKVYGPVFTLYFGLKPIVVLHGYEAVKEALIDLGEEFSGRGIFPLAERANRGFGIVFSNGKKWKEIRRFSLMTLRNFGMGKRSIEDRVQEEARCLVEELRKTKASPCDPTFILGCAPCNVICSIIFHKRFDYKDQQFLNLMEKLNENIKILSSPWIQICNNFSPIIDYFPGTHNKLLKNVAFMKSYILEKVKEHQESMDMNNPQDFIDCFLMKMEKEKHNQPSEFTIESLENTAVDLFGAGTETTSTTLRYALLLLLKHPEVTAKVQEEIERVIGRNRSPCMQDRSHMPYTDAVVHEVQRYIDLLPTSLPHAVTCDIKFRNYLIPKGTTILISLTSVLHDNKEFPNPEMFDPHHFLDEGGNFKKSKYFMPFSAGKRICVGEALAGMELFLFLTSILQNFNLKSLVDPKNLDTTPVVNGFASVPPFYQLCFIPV
Cytochrome P450 3A4, sequence (P08684 whole entry): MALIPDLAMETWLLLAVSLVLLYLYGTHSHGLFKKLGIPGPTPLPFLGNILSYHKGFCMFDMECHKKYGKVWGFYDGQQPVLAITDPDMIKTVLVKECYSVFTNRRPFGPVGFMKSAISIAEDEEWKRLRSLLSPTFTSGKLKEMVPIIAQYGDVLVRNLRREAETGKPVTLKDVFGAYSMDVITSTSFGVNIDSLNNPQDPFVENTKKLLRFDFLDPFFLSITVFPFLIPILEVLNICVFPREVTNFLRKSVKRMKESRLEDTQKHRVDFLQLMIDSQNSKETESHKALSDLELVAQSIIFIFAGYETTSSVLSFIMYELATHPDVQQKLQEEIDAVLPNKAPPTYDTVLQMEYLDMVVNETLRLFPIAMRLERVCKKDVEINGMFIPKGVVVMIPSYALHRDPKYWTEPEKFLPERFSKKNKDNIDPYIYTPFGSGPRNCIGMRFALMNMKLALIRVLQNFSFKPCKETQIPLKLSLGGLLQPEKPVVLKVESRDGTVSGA
Cytochrome P450 2D6, sequence (P10635 whole entry): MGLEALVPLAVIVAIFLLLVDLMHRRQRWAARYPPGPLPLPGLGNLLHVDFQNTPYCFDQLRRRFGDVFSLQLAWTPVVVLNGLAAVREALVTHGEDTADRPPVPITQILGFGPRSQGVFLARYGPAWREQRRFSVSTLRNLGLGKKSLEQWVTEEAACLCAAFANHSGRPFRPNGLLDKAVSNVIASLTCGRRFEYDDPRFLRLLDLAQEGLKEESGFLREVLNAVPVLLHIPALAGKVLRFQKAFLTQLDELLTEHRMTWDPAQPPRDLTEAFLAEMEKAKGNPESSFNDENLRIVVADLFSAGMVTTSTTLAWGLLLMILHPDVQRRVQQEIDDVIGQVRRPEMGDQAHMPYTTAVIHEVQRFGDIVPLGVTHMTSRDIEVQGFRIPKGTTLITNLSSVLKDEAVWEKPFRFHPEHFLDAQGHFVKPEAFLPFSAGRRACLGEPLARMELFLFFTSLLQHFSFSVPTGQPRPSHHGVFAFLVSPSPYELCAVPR
Serine/threonine-protein kinase B-raf, sequence (P15056 whole entry): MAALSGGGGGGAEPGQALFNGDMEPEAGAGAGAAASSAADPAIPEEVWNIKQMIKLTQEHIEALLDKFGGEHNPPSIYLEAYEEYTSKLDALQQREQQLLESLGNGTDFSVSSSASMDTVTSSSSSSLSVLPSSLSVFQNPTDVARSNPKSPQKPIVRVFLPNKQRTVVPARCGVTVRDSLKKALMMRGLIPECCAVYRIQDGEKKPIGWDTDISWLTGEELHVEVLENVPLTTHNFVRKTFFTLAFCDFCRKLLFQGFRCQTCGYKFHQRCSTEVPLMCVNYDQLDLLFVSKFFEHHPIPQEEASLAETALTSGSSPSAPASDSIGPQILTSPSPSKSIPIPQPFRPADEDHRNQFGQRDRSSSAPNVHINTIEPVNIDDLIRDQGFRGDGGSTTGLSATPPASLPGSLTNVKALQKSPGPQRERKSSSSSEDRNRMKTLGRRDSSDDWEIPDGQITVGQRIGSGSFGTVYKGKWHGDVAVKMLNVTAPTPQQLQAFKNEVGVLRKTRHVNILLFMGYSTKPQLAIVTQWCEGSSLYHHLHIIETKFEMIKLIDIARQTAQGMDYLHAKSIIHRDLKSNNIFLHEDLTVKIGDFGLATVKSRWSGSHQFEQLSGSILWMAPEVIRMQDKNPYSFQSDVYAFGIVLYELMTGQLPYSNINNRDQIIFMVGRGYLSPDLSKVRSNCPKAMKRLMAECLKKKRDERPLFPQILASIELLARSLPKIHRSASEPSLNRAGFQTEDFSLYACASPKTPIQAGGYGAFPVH

## Cc1ccc(NC(=O)c2ccnc(C(F)(F)F)c2)cc1-c1cc(OCCO)nc(N2CCOCC2)c1 [NAPORAFENIB]
[1]
  IC50: 240 nM
[2]
  IC50: 78 nM

## CC1(N)CCN(c2cnc(Sc3cccc(Cl)c3Cl)c(N)n2)CC1
[3]; kyse-520
  IC50: 4070 nM
[4]
  IC50: 16200 nM
[5]
  IC50: 195 nM
[6]
  IC50: 2800 nM
[7]
  solubility: 7 µM (≈ 2.69 µg/mL)
[8]
  logP: 3.6
[9]
  logD: 1.1

## Nc1nc(N2CCC3(CCC[C@H]3N)CC2)cnc1Sc1cccnc1C(F)(F)F
[3]; Homo sapiens, KYSE-520
  IC50: 1160 nM

## C=CC(=O)N1CCN(c2nc(=O)n(-c3c(C)ccnc3C(C)C)c3nc(-c4c(O)cccc4F)c(F)cc23)[C@@H](C)C1 [SOTORASIB]
[10]
  IC50: < 30 nM

## Nc1nc2ccc(Sc3cccc(Cl)c3Cl)nc2[nH]1
[11]
  ΔTm: 1.5 °C

## Nc1nc(N2CCC3(CCC[C@H]3N)CC2)cnc1Sc1ccnc(N)c1Cl
[3]; Homo sapiens, KYSE-520
  IC50: 123 nM
[5]
  IC50: 24 nM
[6]
  IC50: > 30000 nM
[7]
  solubility: 561 µM (≈ 228 µg/mL)
[8]
  logP: 2.2
[9]
  logD: -0.6

## C=C(F)C(=O)N1CCN(c2nc(OC[C@@H]3CCCN3C)nc3c2CCN(c2cccc4cccc(Cl)c24)C3)C[C@@H]1CC#N [ADAGRASIB]
[12]
  IC50: 100 nM

## Nc1nccc(Sc2cnc(N3CCC4(CCC[C@H]4N)CC3)cn2)c1Cl
[3]; Homo sapiens, KYSE-520
  IC50: 87 nM

## C[C@@H]1OCC2(CCN(c3cnc(Sc4ccnc(N)c4Cl)c(N)n3)CC2)[C@@H]1N [BATOPROTAFIB]
[3]; kyse-520
  IC50: 100 nM
[4]
  IC50: 666000 nM
[13]
  inhibition (INH): Not Active
[14]
  inhibition (INH): Not Active
[15]
  inhibition (INH): Not Active
[16]
  Activity: Non-Toxic
[17]
  Vd: 3 L/kg
[18]
  half-life: 2 h
[19]
  AUC/dose: 1530 nM·h
[20]
  AUC/dose: 1190 nM·h
[21]
  Cmax/dose: 357 nM
[22]
  Tmax: 0.8 h
[23]
  bioavailability: 78%
[24]
  fraction unbound: 0.24
[25]
  clearance: 15 mL/min/kg
[26]
  Vd: 7 L/kg
[27]
  half-life: 8 h
[28]
  AUC/dose: 2407 nM·h
[29]
  AUC/dose: 2483 nM·h
[30]
  Cmax/dose: 657 nM
[31]
  Tmax: 1 h
[32]
  bioavailability: 100%
[33]
  fraction unbound: 0.19
[34]
  clearance: 4 mL/min/kg
[35]
  Vd: 3 L/kg
[36]
  half-life: 9 h
[37]
  AUC/dose: 10690 nM·h
[38]
  AUC/dose: 15854 nM·h
[39]
  Cmax/dose: 1207 nM
[40]
  Tmax: 2 h
[41]
  bioavailability: > 100%
[42]
  fraction unbound: 0.36
[43]
  clearance: 6 mL/min/kg
[44]
  Vd: 4 L/kg
[45]
  half-life: 9 h
[46]
  AUC/dose: 6438 nM·h
[47]
  AUC/dose: 3848 nM·h
[48]
  Cmax/dose: 286 nM
[49]
  Tmax: 2 h
[50]
  bioavailability: 60%
[51]
  fraction unbound: 0.39
[6]
  IC50: > 30000 nM
[7]
  solubility: 736 µM (≈ 311 µg/mL)
[8]
  logP: 1.6
[9]
  logD: 0.6

## CC1(CN)CCN(c2cnc(Sc3cccc(Cl)c3Cl)c(N)n2)CC1
[3]; kyse-520
  IC50: 2670 nM
[52]
  IC50: 17 nM
[5]
  IC50: 88 nM
[6]
  IC50: 2400 nM
[7]
  solubility: 109 µM (≈ 43.4 µg/mL)
[8]
  logP: 4.3
[9]
  logD: 2.5
